# From article PMC12596731, “Cys–Lys stapling for unprotected peptides via tunable linkers” (National Science Review, 2025)
# Experiment: Cys-Lys stapling of unprotected peptides with unsymmetrical linker (1.5 equiv): Cys thiol displaces phthalimide from N-thiophthalimide (disulfide, ~1 min), then ring closure by Lys amine attack on pentafluorophenyl ester with DIPEA (4 equiv)
# Conditions: the molecule shown is the open-chain precursor, CH3CN:H2O 3:1, 25.0 °C, 0.167 h
structure (smiles),measurement,setting,value
CC(=O)N[C@@H](CCCCN)C(=O)N[C@@H](C)C(=O)N[C@@H](C)C(=O)N[C@@H](C)C(=O)N[C@@H](CSS/C(=C/Cl)c1cccc(C(=O)Oc2c(F)c(F)c(F)c(F)c2F)c1)C(=O)N[C@@H](Cc1ccccc1)C(N)=O [Ac-Lys-Ala-Ala-Ala-Cys(S-linker 3j-OPfp)-Phe-NH2],"ring closure, isolated yield",26-membered ring,72%
CC(=O)N[C@@H](CCC(N)=O)C(=O)N[C@@H](CO)C(=O)N[C@@H](CCC(N)=O)C(=O)N[C@@H](CCC(N)=O)C(=O)N[C@H](C(=O)N[C@@H](Cc1ccccc1)C(=O)N[C@@H](CSS/C(=C/Cl)CCOc1ccccc1C(=O)Oc1c(F)c(F)c(F)c(F)c1F)C(=O)N[C@@H](CC(N)=O)C(=O)N[C@@H](CC(C)C)C(=O)N[C@@H](Cc1c[nH]c2ccccc12)C(=O)N[C@@H](CCCNC(=N)N)C(=O)N[C@@H](CC(C)C)C(=O)N[C@@H](CC(C)C)C(=O)N[C@@H](CCCCN)C(=O)N[C@@H](CCC(N)=O)C(=O)N[C@@H](CC(N)=O)C(N)=O)[C@@H](C)O,"ring closure, isolated yield",37-membered ring,65%
CC(=O)N[C@@H](CCCCN)C(=O)N[C@@H](C)C(=O)N[C@@H](C)C(=O)N[C@@H](C)C(=O)N[C@@H](CSS/C(=C/Cl)CCCCC(=O)Oc1c(F)c(F)c(F)c(F)c1F)C(=O)N[C@@H](Cc1ccccc1)C(N)=O [Ac-Lys-Ala-Ala-Ala-Cys(S-linker 3c-OPfp)-Phe-NH2],"ring closure, isolated yield",27-membered ring,79%
CC(=O)N[C@@H](CCCCN)C(=O)N[C@@H](C)C(=O)N[C@@H](C)C(=O)N[C@@H](C)C(=O)N[C@@H](CSS/C(=C/Cl)CCCC(=O)Oc1c(F)c(F)c(F)c(F)c1F)C(=O)N[C@@H](Cc1ccccc1)C(N)=O [Ac-Lys-Ala-Ala-Ala-Cys(S-linker 3b-OPfp)-Phe-NH2],"ring closure, isolated yield",26-membered ring,76%
CC(=O)N[C@@H](CCC(N)=O)C(=O)N[C@@H](CO)C(=O)N[C@@H](CCC(N)=O)C(=O)N[C@@H](CCC(N)=O)C(=O)N[C@H](C(=O)N[C@@H](Cc1ccccc1)C(=O)N[C@@H](CSS/C(=C/Cl)CCOc1ccc(C(=O)Oc2c(F)c(F)c(F)c(F)c2F)cc1)C(=O)N[C@@H](CC(N)=O)C(=O)N[C@@H](CC(C)C)C(=O)N[C@@H](Cc1c[nH]c2ccccc12)C(=O)N[C@@H](CCCNC(=N)N)C(=O)N[C@@H](CC(C)C)C(=O)N[C@@H](CC(C)C)C(=O)N[C@@H](CCCCN)C(=O)N[C@@H](CCC(N)=O)C(=O)N[C@@H](CC(N)=O)C(N)=O)[C@@H](C)O,"ring closure, isolated yield",39-membered ring,68%
CC[C@H](C)[C@H](NC(=O)[C@@H]1CCCN1C(=O)[C@H](CSS/C(=C/Cl)CCOc1ccc(C(=O)Oc2c(F)c(F)c(F)c(F)c2F)cc1)NC(C)=O)C(=O)N[C@@H](CCSC)C(=O)N[C@@H](CCC(=O)O)C(=O)N[C@@H](CC(=O)O)C(=O)N[C@@H](CCCNC(=N)N)C(=O)N[C@@H](CCCCN)C(=O)N1CCC[C@H]1C(N)=O [Ac-Cys(S-linker 3m-OPfp)-Pro-Ile-Met-Glu-Asp-Arg-Lys-Pro-NH2],"ring closure, isolated yield",39-membered ring,62%
CC(=O)N[C@@H](CCC(N)=O)C(=O)N[C@@H](CO)C(=O)N[C@@H](CCC(N)=O)C(=O)N[C@@H](CCC(N)=O)C(=O)N[C@H](C(=O)N[C@@H](Cc1ccccc1)C(=O)N[C@@H](CSS/C(=C/Cl)CCOc1cccc(C(=O)Oc2c(F)c(F)c(F)c(F)c2F)c1)C(=O)N[C@@H](CC(N)=O)C(=O)N[C@@H](CC(C)C)C(=O)N[C@@H](Cc1c[nH]c2ccccc12)C(=O)N[C@@H](CCCNC(=N)N)C(=O)N[C@@H](CC(C)C)C(=O)N[C@@H](CC(C)C)C(=O)N[C@@H](CCCCN)C(=O)N[C@@H](CCC(N)=O)C(=O)N[C@@H](CC(N)=O)C(N)=O)[C@@H](C)O,"ring closure, isolated yield",38-membered ring,85%
CC(=O)N[C@H](C(=O)N[C@@H](CO)C(=O)N[C@@H](Cc1ccccc1)C(=O)N[C@@H](CCCCN)C(=O)N[C@@H](CCC(N)=O)C(=O)N[C@@H](Cc1ccc(O)cc1)C(=O)N[C@@H](Cc1c[nH]c2ccccc12)C(=O)N[C@@H](CSS/C(=C/Cl)CCOc1ccccc1C(=O)Oc1c(F)c(F)c(F)c(F)c1F)C(=O)N[C@@H](CC(C)C)C(=O)N[C@@H](CC(C)C)C(=O)N[C@@H](CO)C(=O)N[C@@H](CCCNC(=N)N)C(N)=O)[C@@H](C)O,"ring closure, isolated yield",28-membered ring,82%
CC(=O)N[C@H](C(=O)N[C@@H](CO)C(=O)N[C@@H](Cc1ccccc1)C(=O)N[C@@H](CCCCN)C(=O)N[C@@H](CCC(N)=O)C(=O)N[C@@H](Cc1ccc(O)cc1)C(=O)N[C@@H](Cc1c[nH]c2ccccc12)C(=O)N[C@@H](CSS/C(=C/Cl)CCOc1cccc(C(=O)Oc2c(F)c(F)c(F)c(F)c2F)c1)C(=O)N[C@@H](CC(C)C)C(=O)N[C@@H](CC(C)C)C(=O)N[C@@H](CO)C(=O)N[C@@H](CCCNC(=N)N)C(N)=O)[C@@H](C)O,"ring closure, isolated yield",29-membered ring,85%
CC[C@H](C)[C@H](NC(=O)[C@@H]1CCCN1C(=O)[C@H](CSS/C(=C/Cl)CCCC(=O)Oc1c(F)c(F)c(F)c(F)c1F)NC(C)=O)C(=O)N[C@@H](CCSC)C(=O)N[C@@H](CCC(=O)O)C(=O)N[C@@H](CC(=O)O)C(=O)N[C@@H](CCCNC(=N)N)C(=O)N[C@@H](CCCCN)C(=O)N1CCC[C@H]1C(N)=O [Ac-Cys(S-linker 3b-OPfp)-Pro-Ile-Met-Glu-Asp-Arg-Lys-Pro-NH2],"ring closure, isolated yield",35-membered ring,81%
CC(=O)N[C@@H](CCC(N)=O)C(=O)N[C@@H](CO)C(=O)N[C@@H](CCC(N)=O)C(=O)N[C@@H](CCC(N)=O)C(=O)N[C@H](C(=O)N[C@@H](Cc1ccccc1)C(=O)N[C@@H](CSS/C(=C/Cl)CCCCC(=O)Oc1c(F)c(F)c(F)c(F)c1F)C(=O)N[C@@H](CC(N)=O)C(=O)N[C@@H](CC(C)C)C(=O)N[C@@H](Cc1c[nH]c2ccccc12)C(=O)N[C@@H](CCCNC(=N)N)C(=O)N[C@@H](CC(C)C)C(=O)N[C@@H](CC(C)C)C(=O)N[C@@H](CCCCN)C(=O)N[C@@H](CCC(N)=O)C(=O)N[C@@H](CC(N)=O)C(N)=O)[C@@H](C)O,"ring closure, isolated yield",36-membered ring,84%
CC(=O)N[C@H](C(=O)N[C@@H](CO)C(=O)N[C@@H](Cc1ccccc1)C(=O)N[C@@H](CCCCN)C(=O)N[C@@H](CCC(N)=O)C(=O)N[C@@H](Cc1ccc(O)cc1)C(=O)N[C@@H](Cc1c[nH]c2ccccc12)C(=O)N[C@@H](CSS/C(=C/Cl)COCC(=O)Oc1c(F)c(F)c(F)c(F)c1F)C(=O)N[C@@H](CC(C)C)C(=O)N[C@@H](CC(C)C)C(=O)N[C@@H](CO)C(=O)N[C@@H](CCCNC(=N)N)C(N)=O)[C@@H](C)O,"ring closure, isolated yield",26-membered ring,78%
CC(=O)N[C@@H](CCC(N)=O)C(=O)N[C@@H](CO)C(=O)N[C@@H](CCC(N)=O)C(=O)N[C@@H](CCC(N)=O)C(=O)N[C@H](C(=O)N[C@@H](Cc1ccccc1)C(=O)N[C@@H](CSS/C(=C/Cl)COCC(=O)Oc1c(F)c(F)c(F)c(F)c1F)C(=O)N[C@@H](CC(N)=O)C(=O)N[C@@H](CC(C)C)C(=O)N[C@@H](Cc1c[nH]c2ccccc12)C(=O)N[C@@H](CCCNC(=N)N)C(=O)N[C@@H](CC(C)C)C(=O)N[C@@H](CC(C)C)C(=O)N[C@@H](CCCCN)C(=O)N[C@@H](CCC(N)=O)C(=O)N[C@@H](CC(N)=O)C(N)=O)[C@@H](C)O,"ring closure, isolated yield",35-membered ring,89%
C[C@H](NC(=O)[C@H](C)NC(=O)[C@@H](N)CCCCN)C(=O)N[C@@H](C)C(=O)N[C@@H](CSS/C(=C/Cl)CCC(=O)Oc1c(F)c(F)c(F)c(F)c1F)C(=O)N[C@@H](Cc1ccccc1)C(N)=O [H-Lys-Ala-Ala-Ala-Cys(S-linker 3a-OPfp)-Phe-NH2],"ring closure, isolated yield",25-membered ring,68%
